Data as given in US7964635B2, “Amidoacetonitrile derivatives” (Novartis AG, priority 2003, dated 2011).

Legend:
Haemonchus contortus = assay: In-vivo test on Haemonchus contortus on Mongolian gerbils using peroral application; conditions: po, 72 h, worm count 3 days after treatment, read-out: Hc: efficacy, % reduction of the number of worms; for inhibition in vivo at 1 mg/kg: 1 mg/kg peroral; for inhibition in vivo at 10 mg/kg: 10 mg/kg peroral; for inhibition in vivo at 3.2 mg/kg: 3.2 mg/kg peroral
Procedure: (§1) 1. In-Vivo Test on Trichostrongylus colubriformis and Haemonchus contortus on Mongolian Gerbils (Meriones uncuiculatus) Using Peroral Application Six to eight week old Mongolian gerbils are infected through a stomach tube with ca. 2000 third instar larvae each of T. colubriformis and H. contortus. 6 days after infection, the gerbils are treated by peroral application with the test compounds, dissolved in a mixture of 2 parts DMSO and 1 part polyethylene glycol (PEG 400), in quantities of 100, 32 and 10-0.1 mg/kg. On day 9 (3 days after treatment), when most of the H. contortus that are still present are late 4th instar larvae and most of the T. colubriformis are immature adults, the gerbils are killed in order to count the worms. The efficacy is calculated as the % reduction of the number of worms in each gerbil, compared with the geometric average of number of worms from 6 infected and untreated gerbils. The following tables B1, B2 and B3 show a comparison of a series of the compounds of tables 1, 2 and 3 with structurally most closely related ones known from literature, proving the astounding efficacy increase in this test over the state of the art (Hc: Haemonchus contortus; Tc: Trichostrongylus colubriformis): […]

[1] = test system: Trichostrongylus colubriformis; assay: In-vivo test on Trichostrongylus colubriformis on Mongolian gerbils using peroral application; conditions: po, 72 h, worm count 3 days after treatment, read-out: Tc: efficacy, % reduction of the number of worms; for inhibition in vivo at 1 mg/kg: 1 mg/kg peroral; for inhibition in vivo at 10 mg/kg: 10 mg/kg peroral; for inhibition in vivo at 3.2 mg/kg: 3.2 mg/kg peroral
Procedure: as §1

Q: With `CC(C#N)(COc1ccc(C#N)cc1Cl)NC(=O)c1ccc(C(F)(F)F)cc1` (stereo not drawn) [No. 1.1, N-[1-cyano-1-methyl-2-(4-cyano-2-chlorophenoxy)-ethyl]-4-trifluoromethylbenzamide] as the compound, how does the inhibition in vivo at 1 mg/kg (Haemonchus contortus) read?
A: 97%

Q: What about the inhibition in vivo at 1 mg/kg [1] of the same compound?
A: 87%

Q: What about the melting point of the same compound?
A: 147 to 149 °C

Q: What does the source list for `CC(C#N)(COc1ccc(C#N)cc1C(F)(F)F)NC(=O)c1ccc(C(F)(F)F)cc1` (stereo not drawn) [No. 1.3, N-[1-cyano-1-methyl-2-(4-cyano-2-trifluoromethylphenoxy)-ethyl]-4-trifluoromethyl-benzamide]?
A: inhibition in vivo at 1 mg/kg (Haemonchus contortus): 97%; inhibition in vivo at 1 mg/kg [1]: 91%; melting point: 184 to 186 °C

Q: What does the source list for `CC(C#N)(COc1cc(C#N)ccc1Cl)NC(=O)c1ccc(C(F)(F)F)cc1` (stereo not drawn) [No. 1.4, N-[1-cyano-1-methyl-2-(5-cyano-2-chlorophenoxy)-ethyl]-4-trifluoromethylbenzamide]?
A: inhibition in vivo at 1 mg/kg (Haemonchus contortus): 82%; melting point: 147 to 149 °C

Q: With `CC(C#N)(COc1cc(C#N)ccc1C(F)(F)F)NC(=O)c1ccc(C(F)(F)F)cc1` (stereo not drawn) [No. 1.6, N-[1-cyano-1-methyl-2-(5-cyano-2-trifluoromethylphenoxy)-ethyl]-4-trifluoromethyl-benzamide] as the compound, how does the inhibition in vivo at 1 mg/kg (Haemonchus contortus) read?
A: 97%

Q: What about the inhibition in vivo at 1 mg/kg [1] of the same compound?
A: 87%

Q: What about the melting point of the same compound?
A: 154 °C

Q: For `CC(C#N)(COc1ccccc1Cl)NC(=O)c1ccc(C(F)(F)F)cc1` (stereo not drawn) [No. 1.12, reference compound], which inhibition in vivo at 10 mg/kg (Haemonchus contortus) is on record?
A: 82%

Q: And the inhibition in vivo at 10 mg/kg [1]?
A: 98%

Q: Which inhibition in vivo at 3.2 mg/kg (Haemonchus contortus) does the source give for `CC(C#N)(COc1ccc(Cl)cc1Cl)NC(=O)c1ccc(C(F)(F)F)cc1` (stereo not drawn) [No. 1.60, reference compound] here?
A: 29%

Q: And the inhibition in vivo at 3.2 mg/kg [1]?
A: 31%

Q: For `CC(C#N)(COc1ccccc1C(F)(F)F)NC(=O)c1ccc(OC(F)(F)F)cc1` (stereo not drawn) [No. 1.64, reference compound], which inhibition in vivo at 1 mg/kg (Haemonchus contortus) is on record?
A: 28%

Q: What about the inhibition in vivo at 1 mg/kg [1] of the same compound?
A: 55%

Q: With `CC(C#N)(COc1cc(Cl)ccc1Cl)NC(=O)c1ccc(C(F)(F)F)cc1` (stereo not drawn) [No. 1.72, reference compound] as the compound, how does the inhibition in vivo at 10 mg/kg (Haemonchus contortus) read?
A: 66%

Q: For `CC(C#N)(COc1cc(Cl)ccc1Cl)NC(=O)c1ccc(OC(F)(F)F)cc1` (stereo not drawn) [No. 1.124, reference compound], which inhibition in vivo at 10 mg/kg (Haemonchus contortus) is on record?
A: 84%

Q: And the inhibition in vivo at 10 mg/kg [1]?
A: 99%

Q: Which inhibition in vivo at 3.2 mg/kg (Haemonchus contortus) does the source give for `CC(C#N)(COc1ccccc1C(F)(F)F)NC(=O)c1ccc(C(F)(F)F)cc1` (stereo not drawn) [No. 1.264, reference compound] here?
A: 57%

Q: What about the inhibition in vivo at 3.2 mg/kg [1] of the same compound?
A: 76%

Q: With `CC(C#N)(COc1ccc(C#N)cc1Cl)NC(=O)c1ccc(OC(F)(F)F)cc1` (stereo not drawn) [No. 2.1, N-[1-cyano-1-methyl-2-(4-cyano-2-chlorophenoxy)-ethyl]-4-trifluoromethoxybenzamide] as the compound, how does the inhibition in vivo at 3.2 mg/kg (Haemonchus contortus) read?
A: 100%

Q: And the inhibition in vivo at 3.2 mg/kg [1]?
A: 100%

Q: What about the melting point of the same compound?
A: 60 to 62 °C

Q: With `CC(C#N)(COc1ccc(C#N)cc1C(F)(F)F)NC(=O)c1ccc(OC(F)(F)F)cc1` (stereo not drawn) [No. 2.3, N-[1-cyano-1-methyl-2-(4-cyano-2-trifluoromethylphenoxy)-ethyl]-4-trifluoromethoxy-benzamide] as the compound, how does the melting point read?
A: 80 to 82 °C

Q: What does the source list for `CC(C#N)(COc1cc(C#N)ccc1Cl)NC(=O)c1ccc(OC(F)(F)F)cc1` (stereo not drawn) [No. 2.4, N-[1-cyano-1-methyl-2-(5-cyano-2-chlorophenoxy)-ethyl]-4-trifluoromethoxybenzamide]?
A: inhibition in vivo at 1 mg/kg (Haemonchus contortus): 89%; inhibition in vivo at 1 mg/kg [1]: 79%; melting point: 132 to 134 °C

Q: For `CC(C#N)(COc1cc(C#N)ccc1C(F)(F)F)NC(=O)c1ccc(OC(F)(F)F)cc1` (stereo not drawn) [No. 2.6, N-[1-cyano-1-methyl-2-(5-cyano-2-trifluoromethylphenoxy)-ethyl]-4-trifluoromethoxybenzamide], which inhibition in vivo at 1 mg/kg (Haemonchus contortus) is on record?
A: 95%

Q: What about the inhibition in vivo at 1 mg/kg [1] of the same compound?
A: 85%

Q: Which inhibition in vivo at 3.2 mg/kg (Haemonchus contortus) does the source give for `CC(C#N)(COc1ccccc1C(F)(F)F)NC(=O)c1ccc(SC(F)(F)F)cc1` (stereo not drawn) [No. 2.14, reference compound] here?
A: 61%

Q: And the inhibition in vivo at 3.2 mg/kg [1]?
A: 73%

Q: Which inhibition in vivo at 10 mg/kg (Haemonchus contortus) does the source give for `CC(C#N)(COc1ccccc1C(F)(F)F)NC(=O)c1ccc(C(F)(F)F)cc1F` (stereo not drawn) [No. 2.19, reference compound] here?
A: 25%

Q: And the inhibition in vivo at 10 mg/kg [1]?
A: 0%

Q: With `CC(C#N)(COc1ccc(C#N)cc1Cl)NC(=O)c1ccc(SC(F)(F)F)cc1` (stereo not drawn) [No. 3.1, N-[1-cyano-1-methyl-2-(4-cyano-2-chlorophenoxy)-ethyl]-4-trifluoromethylsulfanylbenzamide] as the compound, how does the inhibition in vivo at 1 mg/kg (Haemonchus contortus) read?
A: 69%

Q: And the inhibition in vivo at 1 mg/kg [1]?
A: 93%

Q: And the melting point?
A: 167 to 169 °C

Q: Which results are given for `CC(C#N)(COc1ccc(C#N)cc1C(F)(F)F)NC(=O)c1ccc(SC(F)(F)F)cc1` (stereo not drawn) [No. 3.7, N-[1-cyano-1-methyl-2-(4-cyano-2-trifluoromethylphenoxy)-ethyl]-4-trifluoromethylsulfanyl-benzamide]?
A: inhibition in vivo at 1 mg/kg (Haemonchus contortus): 90%; inhibition in vivo at 1 mg/kg [1]: 98%; melting point: 79 to 82 °C

Q: For `CC(C#N)(COc1ccc(C#N)cc1C(F)(F)F)NC(=O)c1ccc([S+]([O-])C(F)(F)F)cc1` (stereo not drawn) [No. 3.8, N-[1-cyano-1-methyl-2-(4-cyano-2-trifluoromethylphenoxy)-ethyl]-4-trifluoromethylsulfinyl-benzamide], which inhibition in vivo at 1 mg/kg (Haemonchus contortus) is on record?
A: 74%

Q: And the inhibition in vivo at 1 mg/kg [1]?
A: 85%

Q: Which inhibition in vivo at 1 mg/kg (Haemonchus contortus) does the source give for `CC(C#N)(COc1ccc(C#N)cc1C(F)(F)F)NC(=O)c1ccc(S(=O)(=O)C(F)(F)F)cc1` (stereo not drawn) [No. 3.9, N-[1-cyano-1-methyl-2-(4-cyano-2-trifluoromethylphenoxy)-ethyl]-4-trifluoromethylsulfonyl-benzamide] here?
A: 77%

Q: What about the inhibition in vivo at 1 mg/kg [1] of the same compound?
A: 87%

Q: For `CC(C#N)(COc1cc(C#N)ccc1Cl)NC(=O)c1ccc(SC(F)(F)F)cc1` (stereo not drawn) [No. 3.10, N-[1-cyano-1-methyl-2-(5-cyano-2-chlorophenoxy)-ethyl]-4-trifluoromethylsulfanylbenzamide], which inhibition in vivo at 1 mg/kg (Haemonchus contortus) is on record?
A: 100%

Q: And the inhibition in vivo at 1 mg/kg [1]?
A: 100%

Q: What about the melting point of the same compound?
A: 125 to 127 °C

Q: Which inhibition in vivo at 1 mg/kg (Haemonchus contortus) does the source give for `CC(C#N)(COc1cc(C#N)ccc1C(F)(F)F)NC(=O)c1ccc(SC(F)(F)F)cc1` (stereo not drawn) [No. 3.16, N-[1-cyano-1-methyl-2-(5-cyano-2-trifluoromethylphenoxy)-ethyl]-4-trifluoromethylsulfanyl-benzamide] here?
A: 100%

Q: And the inhibition in vivo at 1 mg/kg [1]?
A: 100%

Q: For `CC(C#N)(COc1cc(C#N)ccc1C(F)(F)F)NC(=O)c1ccc([S+]([O-])C(F)(F)F)cc1` (stereo not drawn) [No. 3.17, N-[1-cyano-1-methyl-2-(5-cyano-2-trifluoromethylphenoxy)-ethyl]-4-trifluoromethylsulfinyl-benzamide], which inhibition in vivo at 1 mg/kg (Haemonchus contortus) is on record?
A: 100%

Q: What about the inhibition in vivo at 1 mg/kg [1] of the same compound?
A: 100%

Q: Which inhibition in vivo at 1 mg/kg (Haemonchus contortus) does the source give for `CC(C#N)(COc1cc(C#N)ccc1C(F)(F)F)NC(=O)c1ccc(S(=O)(=O)C(F)(F)F)cc1` (stereo not drawn) [No. 3.18, N-[1-cyano-1-methyl-2-(5-cyano-2-trifluoromethylphenoxy)-ethyl]-4-trifluoromethylsulfonyl-benzamide] here?
A: 100%

Q: What about the inhibition in vivo at 1 mg/kg [1] of the same compound?
A: 100%
